Target: T1, Pmt2p (PpPmt2p) (Komagataella phaffii, UniProt F2QTJ8)
T1 construct: gene PMT2; full-length native integral ER membrane protein in intact cells (chromosomal PMT2); Pmt1p-Pmt2p heterodimer, other PMTs also present; with Dolichyl-phosphate-mannose--protein mannosyltransferase 1
Experiment: HPAEC-PAD of O-mannosylglycan site occupancy on mAb#[…] secreted by intact cells
Type: cell-based
Details: fed-batch fermentation, PMTi-4 8 µM (Figure 4 legend; Discussion prints 8 mM); read-out is total O-mannosylation by all PMTs, not isolated Pmt2p; direct binding not shown

T1 sequence (F2QTJ8 entry or part of it): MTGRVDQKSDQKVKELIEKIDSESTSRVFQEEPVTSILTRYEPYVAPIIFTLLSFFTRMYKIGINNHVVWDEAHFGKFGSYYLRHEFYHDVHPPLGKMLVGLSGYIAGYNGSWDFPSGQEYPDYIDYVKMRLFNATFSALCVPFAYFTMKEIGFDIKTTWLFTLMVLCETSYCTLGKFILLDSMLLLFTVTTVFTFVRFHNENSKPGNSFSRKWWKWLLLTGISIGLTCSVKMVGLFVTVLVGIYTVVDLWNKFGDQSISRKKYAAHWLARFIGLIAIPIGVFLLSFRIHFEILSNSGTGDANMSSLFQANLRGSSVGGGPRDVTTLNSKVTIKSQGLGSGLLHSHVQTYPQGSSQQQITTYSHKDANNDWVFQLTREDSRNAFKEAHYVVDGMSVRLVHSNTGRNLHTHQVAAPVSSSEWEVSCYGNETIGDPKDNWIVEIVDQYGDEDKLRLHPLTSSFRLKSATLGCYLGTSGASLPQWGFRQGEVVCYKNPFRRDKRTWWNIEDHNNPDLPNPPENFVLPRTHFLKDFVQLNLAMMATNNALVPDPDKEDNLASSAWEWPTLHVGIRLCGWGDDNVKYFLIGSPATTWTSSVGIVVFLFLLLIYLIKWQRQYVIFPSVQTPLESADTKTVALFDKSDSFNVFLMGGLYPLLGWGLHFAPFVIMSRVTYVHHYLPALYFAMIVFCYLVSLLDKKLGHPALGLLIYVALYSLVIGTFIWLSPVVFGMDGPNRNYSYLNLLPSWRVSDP

Substance: PMTi-4
- O-mannosylglycan site occupancy: 3.1 O-mannose chains per mAb H2L2 (56 without inhibitor)

Source: paper PMC3648545, “A Phenylalanine to Serine Substitution within an O-Protein Mannosyltransferase Led to Strong Resistance to PMT-Inhibitors in Pichia pastoris” (PLoS ONE, 2013)
